Assay results as given in patent publication US4131615A, “Furan derivative for use as pharmaceutical product particularly for the treatment of rheumatic illnesses” (A. Wasserman S.p.A., priority 1977, dated 1978).

Key:
[1] = Acute oral toxicity in rats; parameters: species or system female Sprague Dawley rats; conditions: in vivo, rat, 14 days, approximate value
Protocol: (§1) The product of the EXAMPLE 1, ±αmethyl-4-(furan-2-carbonyl)phenyl acetic acid, was subjected to toxicological and pharmacological tests in rats and mice. The animals used were Sprague Dawley rats and Swiss mice of both sexes, to which the product was administered orally as a 2% suspension in gum arabic parenterally as the sodium salt.
(§2) This has been tested in male and female mice weighing from 18 to 22 g and in female rats weighing from 90 to 120 grams.
(§3) The product was administered to groups of 6 mice and groups of 6 rats, mortality being looked for 14 days after the administration.

[2] = system: contortions caused by phenyl-p-benzoquinone; experiment: Analgesic activity, phenyl-p-benzoquinone contortions; format: in vivo, female Swiss mice; conditions: Mus musculus; oral, female mice, contortions by intraperitoneal 0.02% phenyl-p-benzoquinone
Protocol: as §1
The oral administration of the product to female mice weighing from 18 to 22 grams reduced the number of contortions caused by the intraperitoneal injection of 0.1 ml/10 g of body weight of a 0.02% solution of phenyl-p-benzoquinone.

[3] = Acute oral toxicity in mice; parameters: species or system male and female Swiss mice; conditions: in vivo, mouse, 14 days, approximate value
Protocol: as §1, §2, §3

[4] = system: edema induced by Carrageenan; experiment: Anti-inflammatory activity, Carrageenan-induced edema; format: in vivo, male Sprague Dawley rats; conditions: 80 mg/Kg oral, 30 minutes before Carrageenan, after 3 hours
Protocol: as §1
An edema was induced in male rats weighing about 120 grams by injection into the aponeurosis under the plantaris of the left foot of 0.1 ml of 1% Carrageenan in saline.
The oral administration of 80-40-20 mg/Kg of product, 30 minutes before the inflammatory agent, reduced after 3 hours the development of the edema by rispectively 53%-47% -23% with respect to that induced in the controls.

arterial pressure = experiment: Action on arterial pressure; format: in vivo; conditions: endovenous injection, 2.5-12.5-62.5 mg/Kg, rabbit
From the text: 7) Action on arterial pressure.

[5] = system: Cotton-Pellet induced granuloma; experiment: Anti-inflammatory activity on Cotton-Pellet induced granuloma; format: in vivo, female Sprague Dawley rats; conditions: 15 mg/Kg oral daily for 7 days, divided into 4 administrations over 9 hours
Protocol: as §1
3) Anti-inflammatory activity on Cotton-Pellet induced granuloma.
The oral administration daily for 7 days of a dose of 15 mg/Kg of the product, divided into 4 administrations taken over a time of 9 hours, reduced the formation of granulomatous tissue formed around Cotton-Pelletsplanted aseptically under the skin of female rats, weighing from 180 to 200 grams, by 17% with respect to controls.

Yeast-Induced fever = experiment: Antipyretic Effect in Yeast-Induced fever; format: in vivo, female Sprague Dawley rats; conditions: 80 mg/Kg oral, after 60 minutes (peak-effect)
Protocol: as §1
5) Antipyretic Effect in Yeast-Induced fever.
The oral administration of rispectively 80-40-20 mg/Kg of the product to female rats reduces the increase in temperature of the rectum, caused by the injection under the skin of 10 ml/Kg of 15% brewer's yeast in 1% arabic gum, by rispectively 71%-63%-33% after 60 minutes (peak-effect) from the administration.

[6] = system: Nystatin subplantaris edema; experiment: Curative activity, Nystatin subplantaris edema; format: in vivo; conditions: rat, doses equal to those cited above (80-40-20 mg/Kg)
Protocol: as §1

[7] = system: experimentally induced arthritis (Freund's adjuvant arthritis); experiment: Freund's adjuvant arthritis; format: in vivo; conditions: 20-40 mg/Kg oral, rat, confirmed by radiologic test

In the case of `CC(C(=O)O)c1ccc(C(=O)c2ccco2)cc1` (racemic) [Example 1, ±α-methyl-4-(furan-2-carbonyl)-phenylacetic acid], the LD50 at 336 h [1] is reported as ~980 mg/kg, the ED50 [2] is reported as 4.35 mg/kg and the LD50 at 336 h [3] is reported as ~1000 mg/kg. The “reduction of the development of the edema with respect to controls” value [4] was 53%, the “variations in the blood pressure” value (arterial pressure) was “does not induce significant variations in the blood pressure” and the “reduction of the formation of granulomatous tissue with respect to controls” value [5] was 17%. The “reduction of the increase in temperature of the rectum” value (Yeast-Induced fever) was 71%, the “regress of the Nystatin subplantaris edema (curative activity)” value [6] was “induce in the rat a regress of the Nystatin subplantaris edema” and the “Recovery from experimentally induced arthritis” value [7] was “Recovery from experimentally induced arthritis in the rat (Freund's adjuvant arthritis) has been obtained”.
